Earlier results as cited in patent US20060099249A1, “Modified release formulations of at least one form of tramadol” (priority 2002, published 2006).
Read-outs that look alike come from different tables or passages of the source.

Assays:
osteoarthritis [1] = conditions: rofecoxib 12.5 mg
osteoarthritis [2] = conditions: 12 weeks, celecoxib 100 mg BID, Naproxen 500 mg BID
[3] = Study No. 033, Ibuprofen 2400 mg, over 6-weeks
[4] = Study No. 040, Ibuprofen 2400 mg, over 6-weeks
[5] = Study No. 058, Nabumetone 1500 mg, over 6-weeks

| Structure (SMILES) | WOMAC pain walking on a flat surface, mean difference vs placebo (osteoarthritis [1]; [3]) | WOMAC pain walking on a flat surface, mean difference vs placebo (osteoarthritis [1]; [4]) | WOMAC pain walking on a flat surface, mean difference vs placebo (osteoarthritis [1]; [5]) | Arthritis Pain VAS change from baseline, LS mean difference vs placebo (osteoarthritis [2]; Study No. 020) | Arthritis Pain VAS change from baseline, LS mean difference vs placebo (osteoarthritis [2]; Study No. 054) | WOMAC pain walking on a flat surface, mean difference vs placebo (osteoarthritis [1]; Study No. 029, LS mean change from baseline over 6-weeks) |
| --- | --- | --- | --- | --- | --- | --- |
| CC(C)Cc1ccc(C(C)C(=O)O)cc1 (stereo not drawn) [Ibuprofen] | 13.5 mm | 14.6 mm | – | – | – | – |
| COc1ccc2cc(CCC(C)=O)ccc2c1 [Nabumetone] | – | – | 10 mm | – | – | – |
| COc1ccc2cc([C@H](C)C(=O)O)ccc2c1 [Naproxen] | – | – | – | 7.6 mm | 11.2 mm | – |
| CS(=O)(=O)c1ccc(C2=C(c3ccccc3)C(=O)OC2)cc1 [rofecoxib, Rofecoxib] | 12.4 mm | 15.4 mm | 9.0 mm | – | – | 14.3 mm |
